Values after ≈ are worked out from the molar mass of the structure shown. Like-named read-outs stand apart in the source and are kept apart here.

The values that follow come from patent US5171676A, “Method of introducing hydroxyl groups into artemisinin and its derivatives” (priority 1991, dated 1992).

The subject of series [1] is Falciparum malaria. The conditions noted are these: cited from earlier work; for reversal of chloroquine-resistance: with chloroquine, reports by Van Dyke et al.
The test system of series [2] is Plasmodium falciparum. Nature of the series: Antimalarial activity against the strains tested (summary of in vitro tests). The series is classed as cell-based. The conditions noted are these: in words. As to the method: (§1) The antimalarial activity of various hydroxylated artemisinin derivatives obtained via the present method was determined by Drs. S. Anderson and W.K. Milhous at the Division of Experimental Therapeutics, Walter Reed Army Institute of Research, Washington, D.C.
(§2) The malarial strains employed in this survey include D6, W2, and GA3. In Table 2, below, the -pharmacological data are reported as IC-50, indicating the concentration, in ng per ml, of compound required to inhibit growth of the parasite at the 50% level.

Series [3] relates to Plasmodium falciparum, malarial strain GA3. Nature of the series: Antimalarial activity in vitro, growth inhibition, strain GA3. It counts as cell-based. The conditions noted are these: 50% inhibition of parasite growth; for IC50: Plasmodium falciparum. As to the method:
as §1, §2

Series [4] has as its system Plasmodium falciparum, malarial strain W2. Nature of the series: Antimalarial activity in vitro, growth inhibition, strain W2. The conditions noted are these: for IC50: Plasmodium falciparum. The series is classed as cell-based. The method, then:
as §1, §2

In series [5] the test system is Plasmodium falciparum, malarial strain D6. Nature of the series: Antimalarial activity in vitro, growth inhibition, strain D6. It counts as cell-based. The conditions noted are these: for IC50: Plasmodium falciparum. The method, then: as §1, §2
Series [6] deals with P. falciparum. The conditions noted are these: cited from earlier work.
Setting [7] is: strain W2, in vitro, 50% inhibition of parasite growth, read-out: IC-50.
Setting [8] is: strain D6, in vitro, 50% inhibition of parasite growth, read-out: IC-50.

Regarding `COc1ccc(CCN(C)CCCC(C#N)(c2ccc(OC)c(OC)c2)C(C)C)cc1OC` (stereo not shown) [verapamil], in series [1], the “synergy with antimalarial drugs” value is on record as “act in a synergistic manner to greatly reduce the quantities of drugs required for activity” and the reversal of chloroquine-resistance result is “reverse the chloroquine-resistance in Falciparum malaria”.
For `CCOC1OC2OC3(C)CCC4C(CO)CCC(C1C)C24OO3` (stereo not shown) [14-Hydroxyarteether], the antimalarial activity result in series [2] was “exhibit antimalarial activity against the strains tested”. Further, the figures for the IC50 in series [3], in series [4] (setting [7]) and in series [5] (setting [8]) were 8.18 ng/mL (≈ 24.9 nM), 2.77 ng/mL (≈ 8.43 nM) and 12.6 ng/mL (≈ 38.4 nM), respectively.
Regarding `COc1ccc2cc1Oc1ccc(cc1)C[C@H]1c3cc(c(OC)cc3CCN1C)Oc1c(OC)c(OC)cc3c1[C@H](C2)N(C)CC3` [tetrandrine], in series [1] (Van Dyke), the “synergy with antimalarial drugs” value is listed as “act in a synergistic manner to greatly reduce the quantities of drugs required for activity”. For the same compound, in series [1], the reversal of chloroquine-resistance result is listed as “reverse the chloroquine-resistance in Falciparum malaria”.
As for `CCN(CC)CCCC(C)Nc1ccnc2cc(Cl)ccc12` (stereo not shown) [Chloroquine, chloroquine], the IC50 in series [4] (W2) amounted to 41.4 ng/mL (≈ 129 nM); in series [5] (D6), 6.63 ng/mL (≈ 20.7 nM).
`CCOC1OC2OC3(C)CCC4C(C)C(O)CC(C1C)C24OO3` (stereo not drawn) [7β-Hydroxyarteether]: the antimalarial activity entry in series [2] was “exhibit antimalarial activity against the strains tested”. Also, the IC-50 worked out at 8.83 ng/mL in series [3]; 2.78 ng/mL in series [4] (strain W2, in vitro, 50% inhibition of parasite growth); 12.6 ng/mL in series [5] (strain D6, in vitro, 50% inhibition of parasite growth).
For the compound `C[C@@H]1CC[C@H]2[C@@H](C)C(=O)O[C@@H]3O[C@@]4(C)CC[C@@H]1[C@]32OO4` [Artemisinin, artemisinin], the resistance development result in series [6] (P. falciparum) is given as “P. falciparum has not developed resistance”. In addition, the speed of action result in series [6] is on record as “act rapidly”. For the same compound, the toxicity entry in series [6] was “relatively non-toxic”. Also, the IC50 in series [3] is 1.58 ng/mL (≈ 5.6 nM); in series [4] (setting [7]), 0.79 ng/mL (≈ 2.8 nM); in series [5] (setting [8]), 0.97 ng/mL (≈ 3.44 nM).
In the case of `CCOC1OC2OC3(C)CCC4C(C)CCC(C1C)C24OO3` (stereo not shown) [Arteether, ethyl ether of dihydroartemisinin], the IC50 in series [3] was determined as 0.498 ng/mL (≈ 1.59 nM); in series [4] (setting [7]), 0.28 ng/mL (≈ 0.896 nM); in series [5] (setting [8]) it was 0.73 ng/mL (≈ 2.34 nM).
Consider `C[C@H]1C(OC(=O)Nc2ccccc2)O[C@@H]2O[C@@]3(C)CC[C@H]4[C@H](CO)CC[C@@H]1[C@@]24OO3` (stereo partly shown) [14-Hydroxy-N-phenylcarbamoyl dihydroartemisinin], for which, in series [2], the antimalarial activity entry is reported as “exhibit antimalarial activity against the strains tested”. In series [5] (setting [8]), the IC50 worked out at 2 ng/mL (≈ 4.77 nM).
